Results reported in PMC10734620, “A blinded in vitro analysis of the intrinsic immunogenicity of hepatotoxic drugs: implications for preclinical risk assessment” (Toxicological Sciences, 2023).
Where two headings read alike, the source gives them in different places.

What was measured:
[1] = tested on: T-cell clones; assay: Generation and drug-specificity testing of T-cell clones; format: cell-based, human; conditions: for Detection of drug-responsive T-cell clones / T-cell clones responsive to drug (SI ≥ 2): 3 donors; for Detection of drug-responsive T-cell clones: SI ≥ 2; for Dose-dependent proliferation of drug-responsive T-cell clones: titrated concentrations, 48 h, EBV-transformed B-cells; for T-cell clones responsive to drug (SI ≥ 2): training compounds, maximum of 216 clones per donor; for Overall immunogenicity call in T-cell assays: priming assay and/or T-cell clones
Description: To establish T-cell lines, PBMC from 3 healthy HLA-typed (Table 2) donors were cultured with individual test compounds (at concentrations not associated with inhibition of mitogen-driven PBMC proliferation; see Figure 2 for individual concentrations) for 14 days. Medium was supplemented with IL-2 (50 U/ml; Peprotech, New Jersey) to maintain drug-specific T-cell expansion. T-cell clones were generated from the T-cell lines by serial dilution and repetitive mitogen stimulation ([Schnyder et al., 2000]). T-cells (0.3–3 cells/well) were cultured with irradiated allogenic PBMC (5 × 10^4/well) and PHA-P (1 µg/ml) in IL-2 containing medium. The medium was supplemented with fresh IL-2 on days 6, 9 and every 2 days thereafter. Growing cultures were expanded further with a second round of mitogen stimulation and tested for drug-specific T-cell proliferation on day 28. Cloned T-cells (5 × 10^4/well) were cultured with irradiated autologous EBV-transformed B-cells (1 × 10^4/well) and drug in duplicate wells for 48 h. Wells containing medium served as a negative control. Proliferation was measured by the addition of [^3H]-thymidine followed by scintillation counting. T-cell clones with SI ≥ 2 were considered drug-responsive and expanded using irradiated allogeneic PBMC for dose-response studies and assessment of CD4/8 phenotyping.
Proliferation was measured by the addition of [^3H]-thymidine as described above.
T-cell clones were washed with FACS buffer and CD phenotype determined using flow cytometry. Cells (10 000) were acquired using a FACSCanto II (BD Biosciences) and data analyzed by FACSDiva software.
Figure 6. Generation of training compound (nitroso sulfamethoxazole, vancomycin, and Bandrowski’s base)-specific T-cell clones. PBMC from 3 healthy donors were cultured with training compounds and supplemented with IL-2 (50 U/ml) for 14 days. T-cell clones were generated from the T-cell lines by serial dilution and repetitive mitogen stimulation. T-cells (0.3–3 cells/well) were stimulated with irradiated allogenic PBMC (5 × 10^4/well) and phytohemagglutinin (1 µg/ml). Well growing cultures were subjected to a second round of expansion then tested for drug-specific T-cell proliferation. Proliferation was measured by the addition of ^3H-thymidine followed by scintillation counting. A–C, Initial specificity test for nitroso sulfamethoxazole, vancomycin, and Bandrowski’s base clones. T-cell clones showing stimulation index, SI ≥ 2 were considered drug-responsive and expanded and used in dose-response studies. SI = Drug-induced T-cell proliferation divided by T-cell proliferation in cell culture media. […] T-cell activation was determined using [^3H]-thymidine incorporation.
Figure 7. […] PBMC from 3 healthy donors were cultured with test compounds and supplemented with IL-2 (50 U/ml) for 14 days. T-cell clones were generated from the T-cell lines by serial dilution and repetitive mitogen stimulation. T-cells (0.3–3 cells/well) were stimulated with irradiated allogenic PBMC (5 × 10^4/well) and phytohemagglutinin (1 µg/ml). Well growing cultures were subjected to a second round of expansion then tested for drug-specific T-cell proliferation. Proliferation was measured by the addition of ^3H-thymidine followed by scintillation counting. […] T-cell activation was determined using [^3H]-thymidine incorporation.

[2] = tested on: PBMC; assay: Inhibition of mitogen-induced (PHA-P) PBMC proliferation; format: cell-based, human
Description: Test compounds were provided by GSK to Liverpool as blinded dry powders with a given volume of dimethyl sulfoxide to prepare stock concentrations of 50 mM. Stock concentrations were aliquoted and stored at −80°C until required for experiments. A fresh aliquot was utilized for every experiment. PBMC from 3 healthy donors were used to determine the maximum tolerated concentration of each test compound. PBMC (0.15 × 10^6) were cultured with graded compound concentrations in U-bottomed 96-well plates for 48 h at 37°C, 5% CO2. Phytohemagglutinin (PHA-P; 10 µg/ml) was added to cells for a further 24 h followed by assessment of proliferation through the addition of [^3H]-thymidine (0.5 µCi/well) for the last 16 h. […] The IC50 value was then calculated using 4-parameter logistic curve-fitting model (GraphPad prism 7.0).
Figure 2. Toxicity profiles of training and test compounds. […] PHA-P (10 µg/ml) was added to cells for a further 24 h followed by assessment of proliferation through the addition of [^3H]-thymidine (0.5 µCi/well) for the last 16 h. […] 4-parameter logistic functions were fit to the data and IC50 values were then reported (GraphPad prism 7.0). […] LPB (Liverpool Pharmacology Biobank) represents the unique identifier for PBMC isolated from each consented healthy blood donor for drug safety research. Percentage proliferation for each compound concentration = Proliferation following drug exposure divided by proliferation after cell culture media exposure multiplied by 100.

[3] = tested on: naïve T-cells; assay: Priming of naïve human T-cells (dendritic cell-T-cell coculture); format: cell-based; conditions: for Proliferation of primed T-cells restimulated with titrated concentrations: 3 drug concentrations (low, medium, high), 48 h; for Number of donors with naïve T-cell priming: 3 study donors; for Proliferation of primed T-cells, drug- vs medium-restimulated wells: 14 days priming, restimulation 48 h at single concentration, 48 wells, [3H]-thymidine
Description: CD14+ monocytes were positively selected using CD14 antibody-conjugated microbeads. This was followed by the depletion of CD25+ cells from the CD14- population and the negative selection of CD45RA+ naïve T-cells. […] Dendritic cells were generated by culturing monocytes with a cocktail of GM-CSF (800 U/ml) and IL-4 (800 U/ml) in culture media for 6 days. Both cytokines were purchased from Peprotech (New Jersey). A maturation cocktail of TNF-α (25 ng/ml) and LPS (1 µg/ml) was added for 16 h before establishing the T-cell priming culture. Dendritic cells (8 × 10^3 per well) were cultured with naïve T-cells (1 × 10^5 per well) and the test compounds in a 96-well U-bottom tissue culture plate for 14 days at 37°C, 5% CO2. Cells were then washed extensively to remove unbound drug and cultures were restimulated with test compound or medium control (48 wells) for 48 h. Subsequent experiments were performed with training compounds to investigate the dose-dependent stimulation of naïve T-cells. In these experiments, T-cells were cultured with 3 concentrations of the test compound and medium (negative control) during the restimulation step. T-cell proliferative responses were determined by addition of [^3H]-thymidine (0.5 µCi/well) for the final 16 h of the culture period. Plates were harvested and counted as described above. […] Student’s t test was performed to determine statistical significance of T-cell proliferation when comparing medium- and drug-treated cultures (*p ≤ .05; **p ≤ .005; ***p < .001).
Figure 3. Naïve T-cell priming with training compounds. CD14+ monocytes were utilized to generate dendritic cells with a cocktail of GM-CSF (800 U/ml) and IL-4 (800 U/ml) in culture media for 6 days. […] A, Nitroso sulfamethoxazole. B, Vancomycin. C, Bandrowski’s base. D, Carbamazepine. E, Piperacillin. The degree of naïve T-cell priming was determined by comparing the counts per minutes (cpm) of drug and media-treated cultures using a beta counter. Student’s t test was performed to determine statistical significance (*p ≤ .05; **p ≤ .005; ***p < .001). Each data point represents T-cells proliferation in individual well of a 96 U-bottomed plate.
Figure 4. Dose-dependent stimulation of primed T-cells with training compound. […] Primed cells were washed extensively and then restimulated with 3 drug concentrations (low, medium, and high) for 48 h followed by determination of T-cell activation by [^3H]-thymidine incorporation. Each data point represents T-cells proliferation in individual well of a 96 U-bottomed plate.
Figure 5. Naïve T-cell priming with test compounds. […] B, Dacarbazine. […] F, Iproniazid. G, Mepivacaine. H, Nevirapine. […] J, Phenoxybenzamine. Primed cells were washed extensively and then restimulated medium or drug for 48 h followed by determination of T-cell activation by [^3H]-thymidine incorporation. Each data point represents T-cells proliferation in individual well of a 96 U-bottomed plate.

[4] = design: method as in Sakatis et al., 2012; Schofield et al., 2021; conditions: Positive = above the threshold of concern; assays not listed negative; ref Sakatis et al., 2012; Schofield et al., 2021; cited from earlier work
[5] = design: method as in FDA DILIrank datasets; conditions: ref FDA DILIrank datasets; cited from earlier work
[6] = Homo sapiens, PBMC, PBMC from 3 healthy donors, compound 48 h, then PHA-P 10 µg/ml 24 h, [3H]-thymidine, read-out: IC50, inhibition of mitogen-driven PBMC proliferation
[7] = PBMC from 3 healthy donors, compound 48 h, then PHA-P 10 µg/ml 24 h, [3H]-thymidine, read-out: IC50, inhibition of mitogen-driven PBMC proliferation

| SMILES | Detection of drug-responsive T-cell clones [1] | Dose-dependent proliferation of drug-responsive T-cell clones [1] | T-cell clones responsive to drug (SI ≥ 2) [1] | Proliferation of primed T-cells restimulated with titrated concentrations [3] | Number of donors with naïve T-cell priming [3] | Proliferation of primed T-cells, drug- vs medium-restimulated wells [3] | IC50 [2, 7] | Overall immunogenicity call in T-cell assays [1] | other results |
| --- | --- | --- | --- | --- | --- | --- | --- | --- | --- |
| NC1=CC(=N\c2ccc(N)cc2)/C(N)=CC/1=N/c1ccc(N)cc1 [Bandrowski's base] | detected from each donor | proliferate in a dose-dependent manner | 13% | stimulated to proliferate in the presence of all 3 concentrations | 3 | Proliferation of primed T-cells was observed |  |  | IC50 [2, 6]: 5 µM |
| NC(=O)N1c2ccccc2C=Cc2ccccc21 [Carbamazepine] | not detected |  |  |  | 1 | not observed | 260 µM |  | IC50 ([2]; PBMC from 3 healthy donors, compound 48 h, then PHA-P 10 µg/ml 24 h, [3H]-thymidine, listed as carbamazepine, read-out: IC50, inhibition of mitogen-driven PBMC proliferation): ≥ 50 µM; Proliferation of primed T-cells on restimulation at highest concentration ([3]; restimulated at 200 µM): weakly significant proliferative response |
| CN(C)CCOC(c1ccccc1)c1ccccc1 [Diphenhydramine] |  |  |  |  |  |  |  | no false positives |  |
| CC[C@H]1OC(=O)[C@H](C)[C@@H](O[C@H]2C[C@@](C)(OC)[C@@H](O)[C@H](C)O2)[C@H](C)[C@@H](O[C@@H]2O[C@H](C)C[C@H](N(C)C)[C@H]2O)[C@](C)(O)C[C@@H](C)C(=O)[C@H](C)[C@@H](O)[C@]1(C)O [Erythromycin] |  | dose-dependent proliferative responses |  |  |  |  | 160 µM | potentially immunogenic | Number of drug-responsive T-cell clones ([1]; donor 2): 3; T-cell clones stimulated to proliferate, donor 2 ([1]; donor 2, maximum of 144 clones per donor): 2%; Detection of drug-responsive T-cell clones, other donors ([1]; donors other than donor 2): not detected; CD phenotype of drug-responsive T-cell clones ([1]; flow cytometry CD4/CD8): CD4+; Routine Assays that are Positive (GSK) [4]: Reactive metabolite; IC50 ([2]; PBMC from 3 healthy donors, compound 48 h, then PHA-P 10 µg/ml 24 h, [3H]-thymidine, listed as erythromycin, read-out: IC50, inhibition of mitogen-driven PBMC proliferation): ≥ 50 µM |
| Cc1cc(NS(=O)(=O)c2ccc(N=O)cc2)no1 [Nitroso sulfamethoxazole, 4-Nitrososulfamethoxazole] | detected from each donor | proliferate in a dose-dependent manner | 10.0% | stimulated to proliferate in the presence of all 3 concentrations | 3 | Proliferation of primed T-cells was observed | 250 µM |  | IC50 ([2]; PBMC from 3 healthy donors, compound 48 h, then PHA-P 10 µg/ml 24 h, [3H]-thymidine, listed as nitroso sulfamethoxazole, read-out: IC50, inhibition of mitogen-driven PBMC proliferation): ≥ 50 µM |
| CC(COc1ccccc1)N(CCCl)Cc1ccccc1 (centres unmarked) [Phenoxybenzamine] |  |  |  |  |  |  |  | no false positives | Routine Assays that are Positive (GSK) [4]: Reactive metabolite; IC50 ([2]; Homo sapiens, PBMC, read-out: IC50, inhibition of mitogen-driven PBMC proliferation, PBMC from 3 healthy donors, compound 48 h, then PHA-P 10 µg/ml 24 h, [3H]-thymidine): 15 µM; IC50 ([2]; read-out: IC50, inhibition of mitogen-driven PBMC proliferation, PBMC from 3 healthy donors, compound 48 h, then PHA-P 10 µg/ml 24 h, [3H]-thymidine): ≤ 20 µM; FDA Clinical Hepatotoxicity Concern [5]: No |
| CCN1CCN(C(=O)N[C@@H](C(=O)N[C@@H]2C(=O)N3[C@@H]2SC(C)(C)[C@@H]3C(=O)O)c2ccccc2)C(=O)C1=O [Piperacillin] | not detected |  |  | not detected |  | not observed |  |  | IC50 [2, 6]: 1000 µM |
| CN[C@H](CC(C)C)C(=O)N[C@H]1C(=O)N[C@@H](CC(N)=O)C(=O)N[C@H]2C(=O)N[C@H]3C(=O)N[C@H](C(=O)N[C@H](C(=O)O)c4cc(O)cc(O)c4-c4cc3ccc4O)[C@H](O)c3ccc(c(Cl)c3)Oc3cc2cc(c3O[C@@H]2O[C@H](CO)[C@@H](O)[C@H](O)[C@H]2O[C@H]2C[C@](C)(N)[C@H](O)[C@H](C)O2)Oc2ccc(cc2Cl)[C@H]1O [Vancomycin] | detected from each donor | proliferate in a dose-dependent manner | 9.7% | stimulated to proliferate in the presence of all 3 concentrations | 3 | Proliferation of primed T-cells was observed |  |  | IC50 ([2]; Homo sapiens, PBMC, read-out: IC50, inhibition of mitogen-driven PBMC proliferation): 2000 µM |
